We go through 63 compounds from a melting point compilation (Tetko et al.; mined from patent text by program, amines drawn as free bases though some values may be those of a salt).

Some results are limits rather than exact numbers.

Take `CC[C@@H](CO)Nc1nc(-c2ccc(Br)cc2)cs1`: the melting point lay within 91 to 93 °C.
As to `COC(=O)c1c(C(=O)OC)c2n(c1C)-c1ccccc1C2`, the melting point lay in the range of 162 to 164 °C.
For `O=C(Cc1ccccc1)Nc1cnc2ccccc2c1O` the value was 253 to 255 °C; for `CCN1C(=O)CCCc2c1ccc(Nc1ncc(Cl)c(Nc3ccccc3C(=O)NC)n1)c2OC`, 225 to 227 °C.
For `CC(C)(C)c1cc(CCC(=O)NNC(=O)C=Cc2ccccc2)cc(C(C)(C)C)c1O` the value was 224 to 225 °C.
For `CC(C)(CCCc1cccnc1)NC(=O)C=CC=C(c1cccc(F)c1)c1cccc(F)c1` the value was 135 to 136 °C.
In turn, `Cc1ccc([N+](=O)[O-])cc1-c1cn(C)cc(-c2ccccc2)c1=O` registered a melting point of 185 to 187 °C.
The compound `COC(=O)c1ccc(Cc2cccc3ccc(NC(=O)CC4CCCC4)cc23)c(OC)c1` showed a melting point of 172 to 174 °C.
On to `CCc1cccc(C)c1CNc1cc(C(=O)NCCO)nc2c1nc(C)n2C`, for which the melting point lay within 256 to 258 °C.
Compound `COC(=O)CCC(=O)c1ccc(S)cc1` displayed a melting point of 83 to 84 °C.
The compound `N#CSc1ccc([N+](=O)[O-])cc1C(Cl)(Cl)Cl` yielded a melting point of 72 °C.
On to `CCn1cc(C(C)=O)c(=O)c2ccc(-c3ccncc3)cc21`, for which the melting point fell in the range of 231 to 233 °C.
For the compound `CCOC(=O)c1cc2c(cn1)[nH]c1ccccc12`, the melting point turned out to be 229 °C.
`O=[N+]([O-])c1ccc2[nH]cc(C3=CCNCC3)c2c1` came in with a melting point of 250 °C.
The same measure for `NC(=O)c1cc(Cl)cc(-c2cccc3cc(Cc4cccc(C(F)(F)F)c4)sc23)c1`: 139 to 140 °C; for `N#CC(c1ccc([N+](=O)[O-])cc1)c1ccc(Cl)cc1Cl` (stereo not drawn): 81 to 82.5 °C.
For `O=C(N[C@H]1CC[C@H](CCN2CCN(c3nccc4c3OCC4)CC2)CC1)C1CCC1` the value was 186 °C; for `COc1ccc(Cc2cnc(-c3ccccc3)c(-c3ccccc3)n2)cc1`, 102 to 103 °C.
The compound `CC(C)(C)OC(=O)[C@@H]1C[C@H](c2ccccc2)CN1` returned a melting point of 62 °C.
For `CC1SC(=O)NN=C1c1ccc2c(c1)C(=Cc1cccs1)C(=O)N2` (stereo not drawn) the value was 287 °C.
For the compound `CCOC(=O)c1cn([C@@H](C)CO)c2c(F)c(N3CCN(C)CC3)c(F)cc2c1=O`, the melting point fell in the range of 195 to 197 °C.
Turning to `O=C(O)CNC(=O)c1ncc2c(Cl)cccc2c1O`, the melting point was 232 °C.
The same measure for `Nc1nc2ccc3ccc(CNc4ccc(F)cc4)cc3c2c(=O)[nH]1`: > 230 °C.
Compound `Cc1nc(C#CCCc2nc3ccccc3o2)c[nH]1` came in with a melting point of 152 to 154 °C.
For `Cc1cn(C2CC(O)C(CNCc3ccc(Cl)cc3)O2)c(=O)[nH]c1=O` (stereo not drawn) the value was 179 to 180 °C; for `CC(=O)CC(=O)c1ccc2c3c(cccc13)CC2`, 59 °C; for `COc1ccc(-c2cc(=S)n(Cc3cc(OC)c(OC)c(OC)c3)nc2-c2ccc(OC)cc2)cc1`, 142 to 146 °C.
In turn, `CN(c1cc(OCC(N)=O)cc2cc(C3=NCC(CN4CCS(=O)CC4)S3)[nH]c12)S(=O)(=O)c1ccccn1` (stereo not drawn) returned a melting point of 160 to 161 °C.
For `CCSC1=C(NC(=O)CN2CCN(CCSc3nc4c(C)c(Cl)cc(C(C)C)c4o3)CC2)C=CC(C)(SCC)N1` (stereo not drawn) the value was 120 to 122 °C; for `CN(C)c1ccc(C=CC(=O)CC(=O)C=Cc2ccc(N(C)C)cc2)cc1`, 207 to 208 °C; for `CCCCc1nc(Sc2ccc(OC)cc2)c(C(=O)OCC)[nH]1`, 96 °C.
For `Cc1oc(C)c2c1C(=O)c1c(O)ccc(O)c1C2=O` the value was 255 to 256 °C.
As for `COC(=O)C1=C(C)NC(C)=C(C#N)C1c1cccc2ncc(-c3ccccc3)cc12` (stereo not drawn), the melting point is 242 °C.
Compound `CC(C)Oc1c(-c2ccc(S(N)(=O)=O)cc2)cnn(CC(F)(F)F)c1=O` gave a melting point of 158 to 160 °C.
In the case of `CC(C)C[C@H](NC(=O)[C@H](Cc1cccc2ccccc12)NC(=O)OCc1ccccc1)C(=O)NN`, the melting point was 200 to 204 °C.
For `Cc1ccc(C(=O)NC(CCCCCl)C(=O)O)cc1` (stereo not drawn) the value was 177 to 181 °C.
`COC[C@@H]1CC[C@H](c2ccc(F)cc2)N1S(=O)(=O)c1ccc(C)cc1` (racemic): the melting point is 152 °C.
`O=C(O)C(Br)C(O)c1cccc([N+](=O)[O-])c1` (stereo not drawn) yielded a melting point of 124 to 125 °C.
Consider `CCn1cnc2c(Nc3cccc(Cl)c3)nc(N3CCC[C@@H]3CN)nc21`, for which the melting point lay within 126 to 129 °C.
With `CCOc1ccc(C(=O)OC)cc1C(=N)N`, the melting point was in the range of 133 to 135 °C.
The same measure for `CCOC(=O)Cc1csc(NS(C)(=O)=O)n1`: 207 to 208 °C.
Regarding `Cc1ccc(Oc2ccccc2C#N)c(O)c1`, the melting point lay within 118 to 119 °C.
Compound `CCOC(=O)c1ncn2c1CN(C)C(=O)c1ncccc1-2` yielded a melting point of 252 to 254 °C.
The same measure for `COc1cccc(NC(=O)NC2N=C(c3ccccc3)c3ccccc3N(CC(=O)N3CCCC3)C2=O)c1` (stereo not drawn): 193 to 194 °C.
Take `CCc1nc2c(o1)C(=O)C=C(Nc1ccc(F)cc1)C2=O`: the melting point was 232 °C.
`Cc1cc(F)ccc1-c1nc(NC(C)(CO)CO)nc2c1ccc(=O)n2-c1c(F)cccc1F` had a melting point of 158 to 160 °C.
Compound `CC1(C)Oc2ccc(Cl)cc2[C@@H](n2ccccc2=O)[C@@H]1O` (relative stereo) registered a melting point of 250 °C.
`O=C(CN1CCN(c2ncccn2)CC1)c1ccc(-c2cccc(C(F)(F)F)c2)nc1`: the melting point fell in the range of 124 to 126 °C.
In turn, `CC(C)(C)c1cc(C(=O)Nc2nc(C(N)=O)c(CCN3CC4CCC(CC4)C3)s2)cc(C(C)(C)C)c1O` returned a melting point of 275 to 276 °C.
In the case of `O=S(=O)(Nc1onc2c1CCCC2)c1ccccc1`, the melting point fell in the range of 155 to 157 °C.
Regarding `CCCCNc1nc(C)c(C(=O)c2ccc(Cl)c([N+](=O)[O-])c2)s1`, the melting point fell in the range of 125 to 128 °C.
As for `CCN1C(=O)C(C)(C)C(=O)N(C)c2cc(OCCCn3c(=O)c(-c4ccccc4)c(Cl)c4ccccc43)ccc21`, the melting point lay in the range of 122 to 128 °C.
Regarding `ClCCCCSc1ccncc1`, the melting point was in the range of 80 to 85 °C.
On to `Cc1cnc2c(C#N)cnn2c1-c1cccc(C(F)(F)F)c1`, for which the melting point lay within 191 to 193 °C.
The same measure for `CNC(=S)NCCSCc1ncccc1N`: 99.5 °C; for `CC(C)c1c(CO)n(-c2ccc(F)cc2)c(=O)c2ccccc12`: 157 to 158 °C.
For `CC(c1cccnn1)c1cccc(Cl)c1Cl` (stereo not drawn) the value was 96 to 98 °C; for `CCC(=O)c1cc(-c2cccc(O)c2)cs1`, 112 °C.
Compound `CC(Cc1c[nH]c2ccccc12)NC(=O)NCC1CCC(c2ccccc2)(N(C)C)CC1` (stereo not drawn) had a melting point of 140 to 146 °C.
In turn, `Nc1cnn(CCO)c1N` yielded a melting point of 158 to 160 °C.
Compound `O=c1[nH]c2cc([N+](=O)[O-])c(S(=O)(=O)N(CCO)CCO)cc2[nH]c1=O` returned a melting point of 310 to 321 °C.
`OC(CNCc1ccccc1)C(c1ccccc1)c1ccccc1` (stereo not drawn) returned a melting point of 123 to 124 °C.
On to `COC(=O)CS(=O)(=O)NOC[C@@H]1NC(=O)[C@@H]1NC(=O)OC(C)(C)C` (relative stereo), for which the melting point fell in the range of 128 to 129 °C.

Broadly, the melting point is the temperature of the solid-liquid transition.
